Experimental data as given in patent US20240383905A1, “FGFR INHIBITORS AND METHODS OF USE THEREOF” (3H PHARMACEUTICALS CO., LTD., priority 2021, published 2024).
Like-named read-outs stand apart in the source and are kept apart here.

Legend:
[1] = Pharmacokinetics in SD Rat; type: in vivo, Sprague-Dawley (SD) rat; conditions: male SD rat, plasma
Protocol: Animal studies were done as approved protocols by the Institutional Animal Care and Use Committee at INVIVO Biotech Co., Ltd.
Animal information: Sprague-Dawley (SD) rat, SPF, 6-8 weeks, Male, weight 200-250 g, purchased from Beijing Vital River Lab (Beijing, People's Republic of China).
Formulation: Prepare 1.5 mg/ml and 0.6 mg/ml compound solution in […](20% HPβCD) for PO and IV respectively, dosing immediately after preparation.
Administration: PO and IV;

FGFR3 = biological target: T1, FGFR3 (Homo sapiens, UniProt P22607); assay: FGFR3 Biochemical Caliper Assay (KinEASE-TK kit); conditions: ratio FGFR3/FGFR2 of the biochemical assay
T1 construct: purchased Carna 08-135
Method in brief: (§1)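 KinEASE-TK HTRF readout: enzyme at 0.2 nM (FGFR1, FGFR3) preincubated 10 min at RT with 10-point 3-fold compound dilutions before TK-substrate/ATP start.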

FGFR1 = biological target: T2, FGFR1 (Homo sapiens, UniProt P11362); assay: FGFR1 Biochemical Caliper Assay (KinEASE-TK kit); conditions: ratio FGFR1/FGFR2 of the biochemical assay
T2 construct: purchased Carna 08-133
Method in brief: as §1

SNU16 cells = assay: SNU16 Cancer Cell Line Proliferation Assay (CellTiter-Glo); type: cell-based; conditions: Homo sapiens, SNU-16, 72 h
Method in brief: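 SNU16 cells at 5000/well exposed to 9-point 3-fold serial compound dilutions (DMSO control) for 72 h at 37 °C, 5% CO2. Viability read by luminescence; IC50 calculated from dose-response.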

FGFR2 = biological target: T3, FGFR2 (Homo sapiens, UniProt P21802); assay: FGFR2 Biochemical Caliper Assay (KinEASE-TK kit); conditions: 0.07 nM FGFR2; compound incubated with protein 10 min, reaction 45 min at RT; read-out: FGFR2 Cliper IC50
T3 construct: purchased Carna 08-134

[2] = Sprague-Dawley, PO 15 mg/kg (IV used for Clearance)
[3] = Sprague-Dawley, PO 15 mg/kg (IV used for Clearance), read-out: Cmax
[4] = PO 15 mg/kg (IV used for Clearance)

T3 sequence (P21802 22-821): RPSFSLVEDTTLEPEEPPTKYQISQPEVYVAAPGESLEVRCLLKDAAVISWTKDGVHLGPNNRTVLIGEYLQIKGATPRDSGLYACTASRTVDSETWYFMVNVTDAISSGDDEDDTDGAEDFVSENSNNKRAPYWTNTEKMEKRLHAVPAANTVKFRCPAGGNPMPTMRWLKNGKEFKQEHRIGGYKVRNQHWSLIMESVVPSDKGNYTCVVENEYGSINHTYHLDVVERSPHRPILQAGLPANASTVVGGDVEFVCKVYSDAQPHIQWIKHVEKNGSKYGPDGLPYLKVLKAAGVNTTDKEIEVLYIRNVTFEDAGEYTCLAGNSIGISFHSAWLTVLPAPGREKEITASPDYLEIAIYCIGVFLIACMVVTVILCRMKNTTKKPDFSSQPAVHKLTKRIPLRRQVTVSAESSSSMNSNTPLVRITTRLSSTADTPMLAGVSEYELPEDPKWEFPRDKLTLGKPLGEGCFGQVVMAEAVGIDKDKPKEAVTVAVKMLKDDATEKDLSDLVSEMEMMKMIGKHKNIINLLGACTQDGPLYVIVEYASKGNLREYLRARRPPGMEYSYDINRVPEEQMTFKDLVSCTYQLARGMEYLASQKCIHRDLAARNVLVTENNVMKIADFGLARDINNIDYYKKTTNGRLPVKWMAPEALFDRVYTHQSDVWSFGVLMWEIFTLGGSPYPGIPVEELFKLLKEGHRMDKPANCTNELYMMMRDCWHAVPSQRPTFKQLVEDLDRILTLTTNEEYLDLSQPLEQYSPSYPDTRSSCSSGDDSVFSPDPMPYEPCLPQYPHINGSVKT
T1 sequence (P22607 23-806): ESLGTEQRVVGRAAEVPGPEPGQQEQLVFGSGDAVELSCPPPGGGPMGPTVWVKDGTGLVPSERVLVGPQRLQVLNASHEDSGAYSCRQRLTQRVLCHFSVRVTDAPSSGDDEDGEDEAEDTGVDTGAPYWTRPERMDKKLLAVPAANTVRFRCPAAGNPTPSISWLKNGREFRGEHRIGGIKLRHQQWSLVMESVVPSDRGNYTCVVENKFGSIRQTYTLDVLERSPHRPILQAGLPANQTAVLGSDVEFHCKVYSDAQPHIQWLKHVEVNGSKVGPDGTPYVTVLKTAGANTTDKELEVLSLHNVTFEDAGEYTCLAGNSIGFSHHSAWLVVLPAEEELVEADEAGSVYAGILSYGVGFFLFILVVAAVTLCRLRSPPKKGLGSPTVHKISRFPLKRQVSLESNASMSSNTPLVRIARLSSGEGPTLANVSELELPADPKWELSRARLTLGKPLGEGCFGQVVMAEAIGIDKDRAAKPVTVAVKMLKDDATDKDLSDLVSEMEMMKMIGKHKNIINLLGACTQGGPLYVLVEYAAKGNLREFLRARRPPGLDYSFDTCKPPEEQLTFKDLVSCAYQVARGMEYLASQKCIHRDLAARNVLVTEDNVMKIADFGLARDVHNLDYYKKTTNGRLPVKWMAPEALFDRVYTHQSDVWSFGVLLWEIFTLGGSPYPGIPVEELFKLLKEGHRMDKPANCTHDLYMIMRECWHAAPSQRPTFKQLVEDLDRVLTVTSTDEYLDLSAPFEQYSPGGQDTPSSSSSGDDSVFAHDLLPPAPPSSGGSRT
T2 sequence (P11362 22-822): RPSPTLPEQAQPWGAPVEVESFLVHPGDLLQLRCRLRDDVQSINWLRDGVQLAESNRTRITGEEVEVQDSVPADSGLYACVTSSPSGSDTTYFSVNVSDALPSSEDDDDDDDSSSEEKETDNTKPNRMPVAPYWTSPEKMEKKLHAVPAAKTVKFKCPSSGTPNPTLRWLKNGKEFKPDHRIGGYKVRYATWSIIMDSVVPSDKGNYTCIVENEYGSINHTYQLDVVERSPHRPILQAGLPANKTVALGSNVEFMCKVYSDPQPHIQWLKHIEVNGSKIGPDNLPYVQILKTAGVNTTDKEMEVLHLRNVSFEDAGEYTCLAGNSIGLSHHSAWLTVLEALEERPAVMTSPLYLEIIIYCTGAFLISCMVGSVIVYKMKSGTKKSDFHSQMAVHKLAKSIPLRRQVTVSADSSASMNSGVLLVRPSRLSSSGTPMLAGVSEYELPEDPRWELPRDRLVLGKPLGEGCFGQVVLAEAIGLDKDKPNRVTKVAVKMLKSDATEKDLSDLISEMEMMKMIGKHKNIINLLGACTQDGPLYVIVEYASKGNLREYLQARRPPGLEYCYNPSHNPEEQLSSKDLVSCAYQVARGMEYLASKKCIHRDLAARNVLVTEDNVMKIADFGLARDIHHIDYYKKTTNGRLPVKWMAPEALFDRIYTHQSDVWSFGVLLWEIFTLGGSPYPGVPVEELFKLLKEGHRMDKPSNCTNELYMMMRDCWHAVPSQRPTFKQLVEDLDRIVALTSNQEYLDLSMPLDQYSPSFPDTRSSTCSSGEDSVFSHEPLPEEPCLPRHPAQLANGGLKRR

SMILES: C=C(F)C(=O)Nc1ccc(-c2[nH]c3c(C#N)cnc(N)c3c2-c2ccc(C(=O)NCC(F)(F)F)c(OC)c2)cc1 [Compound 302]
- clearance ([1]; Sprague-Dawley, IV 3 mg/kg): 3.4 mL/min/kg
- AUC(0-inf) [1, 2]: 1510 ng·h/mL
- half-life [1, 2]: 2.7 h
- Cmax [1, 3]: 615 ng/mL

SMILES: C=C(F)C(=O)Nc1ccc(-c2nn3ncnc(N)c3c2-c2ccc(C(=O)NC34CC(C3)C4)c(OC)c2)cc1 [Compound 270, 4-(4-amino-6-(4-(2-fluoroacrylamido)phe-nyl)pyrazolo[5,1-f][1,2,4]triazin-5-yl)-N-(bicyclo[1.1.1]pentan-1-yl)-2-methoxybenzamide]
- Cl ([1]; IV 3 mg/kg): 18 mL/min/kg
- AUC0-∞ [1, 4]: 3384 ng·h/mL
- Cmax [1, 4]: 978 ng/mL
- T1/2 [1, 4]: 2 h

SMILES: C=C(F)C(=O)Nc1ccc(-c2nn3ncnc(N)c3c2-c2ccc(C(=O)NC3CC3(F)F)c(OC)c2)cc1 (centres unmarked) [Compound 193, 4-(4-amino-6-(4-(2-fluoroacrylamido)phe-nyl)pyrazolo[5,1-f][1,2,4]triazin-5-yl)-N-(2,2-difluorocyclopropyl)-2-methoxybenzamide]
- Selectivity FGFR3/FGFR2 (FGFR3): A+ (Selectivity of FGFR3/FGFR2 greater or equal to 150)
- Selectivity FGFR1/FGFR2 (FGFR1): A+ (Selectivity of FGFR1/FGFR2 greater or equal to 500)
- IC50 (SNU16 cells): ≤ 10 nM
- clearance ([1]; Sprague-Dawley, IV 3 mg/kg): 8.4 mL/min/kg
- AUC(0-inf) [1, 2]: 4570 ng·h/mL
- half-life [1, 2]: 3.6 h
- Cmax [1, 3]: 1390 ng/mL
- IC50 (FGFR2): 5 to 10 nM

SMILES: C=C(F)C(=O)Nc1ccc(-c2nn3ncnc(N)c3c2-c2ccc(C(=O)NC34CC(F)(C3)C4)c(OC)c2)cc1 [Compound 330]
- Selectivity FGFR3/FGFR2 (FGFR3): A+ (Selectivity of FGFR3/FGFR2 greater or equal to 150)
- Selectivity FGFR1/FGFR2 (FGFR1): A+ (Selectivity of FGFR1/FGFR2 greater or equal to 500)
- IC50 (SNU16 cells): ≤ 10 nM
- clearance ([1]; Sprague-Dawley, IV 3 mg/kg): 6.1 mL/min/kg
- AUC(0-inf) [1, 2]: 1820 ng·h/mL
- half-life [1, 2]: 2.4 h
- Cmax [1, 3]: 509 ng/mL
- IC50 (FGFR2): > 10 nM

SMILES: C=C(F)C(=O)Nc1ccc(-c2nn3ncnc(N)c3c2-c2ccc(C(=O)NC3CC(F)(F)C3)c(OC)c2)cc1 [Compound 99]
- clearance ([1]; Sprague-Dawley, IV 3 mg/kg): 18 mL/min/kg
- AUC(0-inf) [1, 2]: 3080 ng·h/mL
- half-life [1, 2]: 1.4 h
- Cmax [1, 3]: 2360 ng/mL

SMILES: C=C(F)C(=O)Nc1ccc(-c2nn3ncnc(N)c3c2-c2ccc(C(=O)NC3(C(F)(F)F)CC3)c(OC)c2)cc1 [Compound 308]
- Selectivity FGFR3/FGFR2 (FGFR3): A (Selectivity of FGFR3/FGFR2 less than 150 but greater than or equal to 100)
- Selectivity FGFR1/FGFR2 (FGFR1): C (Selectivity of FGFR1/FGFR2 less than 200 but greater than or equal to 100)
- IC50 (SNU16 cells): ≤ 10 nM
- clearance ([1]; Sprague-Dawley, IV 3 mg/kg): 17 mL/min/kg
- AUC(0-inf) [1, 2]: 3760 ng·h/mL
- half-life [1, 2]: 2.4 h
- Cmax [1, 3]: 1180 ng/mL
- IC50 (FGFR2): > 10 nM

SMILES: C=C(F)C(=O)Nc1ccc(-c2nn3ncnc(N)c3c2-c2ccc(C(=O)NCCC(F)(F)F)c(OC)c2)cc1 [Compound 310]
- clearance ([1]; Sprague-Dawley, IV 3 mg/kg): 16 mL/min/kg
- AUC(0-inf) [1, 2]: 2970 ng·h/mL
- half-life [1, 2]: 1.1 h
- Cmax [1, 3]: 1190 ng/mL

SMILES: C=C(C)C(=O)Nc1ccc(-c2c(-c3ccc(Oc4nccc(C)n4)c(F)c3)c3c(N)ncnc3n2C)cc1 [Compound 0, N-(4-(4-amino-5-(3-fluoro-4-((4-methylpyrimidin-2-yl)oxy)phenyl)-7-methyl-7H-pyrrolo[2,3-d]pyrimidin-6-yl)phenyl)methacrylamide, reference compound]
- IC50 (SNU16 cells): ≤ 10 nM
- clearance ([1]; Sprague-Dawley, IV 3 mg/kg): 49 mL/min/kg
- AUC(0-inf) [1, 2]: 614 ng·h/mL
- half-life [1, 2]: 1.5 h
- Cmax [1, 3]: 244 ng/mL

SMILES: C=C(F)C(=O)Nc1ccc(-c2nn3ncnc(N)c3c2-c2ccc(C(=O)NCC(F)(F)F)c(OC)c2)cc1 [Compound 71, 4-(4-amino-6-(4-(2-fluoroacrylamido)phenyl)pyrazolo[5,1-f][1,2,4]triazin-5-yl)-2-methoxy-N-(2,2,2-trifluoroethyl)benzamide]
- clearance ([1]; Sprague-Dawley, IV 3 mg/kg): 18 mL/min/kg
- AUC(0-inf) [1, 2]: 3230 ng·h/mL
- half-life [1, 2]: 1.8 h
- Cmax [1, 3]: 1300 ng/mL

SMILES: C=C(F)C(=O)Nc1ccc(-c2c(-c3ccc(C(=O)NCC(F)(F)F)c(OC)c3)c3c(N)ncc(C#N)c3n2C)cc1 [Compound 96, 4-(4-amino-7-cyano-2-(4-(2-fluoroacrylamido)phenyl)-1-methyl-1H-pyrrolo[3,2-c]pyridine-3-yl)-2-methoxy-N-(2,2,2-trifluoroethyl)benzamide]
- Selectivity FGFR3/FGFR2 (FGFR3): A+ (Selectivity of FGFR3/FGFR2 greater or equal to 150)
- Selectivity FGFR1/FGFR2 (FGFR1): A+ (Selectivity of FGFR1/FGFR2 greater or equal to 500)
- IC50 (SNU16 cells): ≤ 10 nM
- clearance ([1]; Sprague-Dawley, IV 3 mg/kg): 3.1 mL/min/kg
- AUC(0-inf) [1, 2]: 2700 ng·h/mL
- half-life [1, 2]: 6 h
- Cmax [1, 3]: 621 ng/mL
- IC50 (FGFR2): < 5 nM

SMILES: C=C(F)C(=O)Nc1ccc(-c2[nH]c3c(C#N)cnc(N)c3c2-c2ccc(C(=O)NC3CC3)c(OC)c2)cc1 [Compound 235, 4-(4-amino-7-cyano-2-(4-(2-fluoroacrylamido)phe-nyl)-1H-pyrrolo[3,2-c]pyridin-3-yl)-N-cyclopropyl-2-methoxybenzamide]
- Selectivity FGFR3/FGFR2 (FGFR3): A+ (Selectivity of FGFR3/FGFR2 greater or equal to 150)
- Selectivity FGFR1/FGFR2 (FGFR1): A+ (Selectivity of FGFR1/FGFR2 greater or equal to 500)
- IC50 (SNU16 cells): ≤ 10 nM
- clearance ([1]; Sprague-Dawley, IV 3 mg/kg): 5.4 mL/min/kg
- AUC(0-inf) [1, 2]: 2070 ng·h/mL
- half-life [1, 2]: 1.3 h
- Cmax [1, 3]: 442 ng/mL
- IC50 (FGFR2): < 5 nM

SMILES: C=C(F)C(=O)Nc1ccc(-c2nn3ncnc(N)c3c2-c2ccc(C(=O)NC3CC(F)C3)c(OC)c2)cc1 (centres unmarked) [Compound 185, 4-(4-amino-6-(4-(2-fluoroacrylamido)phe-nyl)pyrazolo[5,1-f][1,2,4]triazin-5-yl)-N-(3-fluorocyclobutyl)-2-methoxybenzamide]
- Selectivity FGFR3/FGFR2 (FGFR3): A+ (Selectivity of FGFR3/FGFR2 greater or equal to 150)
- Selectivity FGFR1/FGFR2 (FGFR1): A+ (Selectivity of FGFR1/FGFR2 greater or equal to 500)
- IC50 (SNU16 cells): ≤ 10 nM
- clearance ([1]; Sprague-Dawley, IV 3 mg/kg): 26 mL/min/kg
- AUC(0-inf) [1, 2]: 1550 ng·h/mL
- half-life [1, 2]: 3 h
- Cmax [1, 3]: 507 ng/mL
- IC50 (FGFR2): > 10 nM

SMILES: C=C(F)C(=O)Nc1ccc(-c2nn3ncnc(N)c3c2-c2ccc(C(=O)NCC3(C(F)(F)F)CC3)c(OC)c2)cc1 [Compound 309]
- Selectivity FGFR3/FGFR2 (FGFR3): A+ (Selectivity of FGFR3/FGFR2 greater or equal to 150)
- Selectivity FGFR1/FGFR2 (FGFR1): A+ (Selectivity of FGFR1/FGFR2 greater or equal to 500)
- IC50 (SNU16 cells): ≤ 10 nM
- clearance ([1]; Sprague-Dawley, IV 3 mg/kg): 11 mL/min/kg
- AUC(0-inf) [1, 2]: 3100 ng·h/mL
- half-life [1, 2]: 2.6 h
- Cmax [1, 3]: 957 ng/mL
- IC50 (FGFR2): 5 to 10 nM

SMILES: C=CC(=O)Nc1ccc(-c2c(-c3ccc(C(=O)NCC(F)(F)F)c(OC)c3)c3c(N)ncc(C#N)c3n2C)cc1 [Compound 28, 4-(2-(4-acrylamidophenyl)-4-amino-7-cyano-1-methyl-1H-pyrrolo[3,2-c]pyridin-3-yl)-2-methoxy-N-(2,2,2-trifluoroethyl)benzamide]
- Selectivity FGFR3/FGFR2 (FGFR3): B (Selectivity of FGFR3/FGFR2 less than 100 but greater than or equal to 25)
- Selectivity FGFR1/FGFR2 (FGFR1): A (Selectivity of FGFR1/FGFR2 less than 500 but greater than or equal to 300)
- IC50 (SNU16 cells): ≤ 10 nM
- clearance ([1]; Sprague-Dawley, IV 3 mg/kg): 19 mL/min/kg
- AUC(0-inf) [1, 2]: 1240 ng·h/mL
- half-life [1, 2]: 0.98 h
- Cmax [1, 3]: 509 ng/mL
- IC50 (FGFR2): < 5 nM
